Data taken from patent US20260116921A1, “PEPTIDE INHIBITORS OF INTERLEUKIN-23 RECEPTOR AND THEIR USE TO TREAT INFLAMMATORY DISEASES” (priority 2018, published 2026).
Numbered stars: 1 amine (or outer) side, 2 acyl side, 3 side chain; on linkers, the order of the positions; unused ones are H or OH. Bridge positions count the residues as written; N and C are the ends. Square brackets hold non-standard residues; d marks the D form. Peptide text beside a SMILES is read from it. X4 = CC(C)c1cccc2c(C[C@H](N[*:1])C(=O)[*:2])c[nH]c12; Trp(7-Me) = Cc1cccc2c(C[C@H](N)C(=O)O)c[nH]c12; Trp(1-Me) = Cn1cc(C[C@H](N)C(=O)O)c2ccccc21; Abu(4-yl) = O=C([C@H](CC[*:3])N[*:1])[*:2]; 2Nal = N[C@@H](Cc1ccc2ccccc2c1)C(=O)O; AEF = NCCOc1ccc(C[C@H](N)C(=O)O)cc1; Cit = NC(=O)NCCC[C@H](N)C(=O)O; Pen = CC(C)(S)[C@H](N)C(=O)O; αMeK = C[C@](N)(CCCCN)C(=O)O; βAla = NCCC(=O)O

What was measured:
in vitro [1] = settings: human, 20% fecal homogenate (supernatant), anaerobic, pH 6.8
Experimental: (§1) Fecal homogenate (20%) was prepared by adding 4 mL of growth medium (1 liter contains 2 g peptone water powder, 2 g yeast extract, 0.1 g NaCl, 0.04 g KH2PO4, 0.01 g CaCl2·6H2O, 0.01 g MgSO4·7H2O, 2 mL Tween 80, 0.5 g bile salts, 0.5 g L-cysteine HCl, 2 g NaHCO3, and 10 μL Vitamin K, pH adjusted to 6.8, and sterilized by filtration through a 0.22 μm filter) to every gram of feces (pooled freshly collected human or cynomolgus monkey feces). The suspension was vortexed to break up large clumps, and homogenized using a bead mill homogenizer. Centrifuged the homogenate at 2800×g for 15 min. The supernatant is taken out and used for incubations. DMSO stocks (10 mM) were first prepared for the test compounds. Incubations were performed in an anaerobic chamber conditioned at 37° C. Aliquots of the DMSO solutions were dosed into 1.0 mL aliquots of 20% fecal homogenate, which are pre-warmed to 37° C. The final test compound concentration was 20 μM. At each timepoint (0, 20 min, 1, 3, 6, or 24 hours), 100 μL aliquot of each incubation mixture is taken out and added to separate tubes containing 300 μL of 50% acetonitrile/50% methanol and an internal standard to terminate the reaction. Samples were taken out of the anaerobic chamber and stored at 4° C. until the end of the experiment. After the final timepoint is sampled, the tubes were mixed and then centrifuged at 3,000 rpm for 10 minutes. Aliquots of the supernatant were removed, diluted 1:1 into distilled water containing 0.1% formic acid, and analyzed by LC/MS/MS. Percent remaining at each timepoint was calculated based on the peak area response ratio of test to compound to internal standard. Time 0 was set to 100%, and all later timepoints were calculated relative to time 0. Half-lives were calculated by fitting to a first-order exponential decay equation using Graphpad or Excel.

IL-23R = biological target: T1, IL-23R (Homo sapiens, UniProt Q5VWK5); assay: DB cells IL23R pSTAT3 cell assay (pStat3 HTRF); format: cell-based; settings: Table E3; DB cells, IL-23 0.5 nM, 30 minutes at 37° C.; read-out: pStat3 HTRF (IC50)
T1 sequence (Q5VWK5 24-629): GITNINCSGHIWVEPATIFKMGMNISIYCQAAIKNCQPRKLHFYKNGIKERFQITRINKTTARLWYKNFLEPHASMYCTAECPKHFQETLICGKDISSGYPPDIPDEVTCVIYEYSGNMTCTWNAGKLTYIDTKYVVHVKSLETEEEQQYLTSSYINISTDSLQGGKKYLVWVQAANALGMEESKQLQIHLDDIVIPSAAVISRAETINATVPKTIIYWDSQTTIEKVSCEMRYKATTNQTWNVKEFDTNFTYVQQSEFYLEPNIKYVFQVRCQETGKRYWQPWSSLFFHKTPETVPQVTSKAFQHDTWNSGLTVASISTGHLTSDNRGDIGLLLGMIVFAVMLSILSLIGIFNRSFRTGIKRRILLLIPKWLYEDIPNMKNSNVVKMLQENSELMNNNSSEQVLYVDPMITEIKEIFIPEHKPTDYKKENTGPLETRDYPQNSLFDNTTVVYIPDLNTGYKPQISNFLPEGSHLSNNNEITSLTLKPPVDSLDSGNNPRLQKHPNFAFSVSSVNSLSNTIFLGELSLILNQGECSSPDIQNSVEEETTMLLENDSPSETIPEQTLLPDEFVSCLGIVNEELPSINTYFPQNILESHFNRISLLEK
How it was run: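 HTRF readout of lysate pSTAT3 (Tyr705) after two-plate processing. Peptide dilution series co-incubated with IL-23 (0.5 nM final) on 5×10E5 IL-23R-expressing DB cells per well, 30 min, 37 °C.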

in vitro [2] = settings: cynomolgus monkey, 20% fecal homogenate (supernatant), anaerobic, pH 6.8
Experimental: as §1

in vitro [3] = format: in vitro ADME; design: half-life: dose or concentration left out as unconfirmed; settings: simulated intestinal fluid (SIF) with pancreatin, pH 6.8, 37° C., § matrix is 100 fold dilution of standard SIF concentration, read-out: SIF t½ (converted)
in vitro [4] = settings: both, SD, rat, plasma (EDTA)
Experimental: Peptides of interest (20 μM) were incubated with pre-warmed rat plasma (SD rat, mixed gender pooled, EDTA, filtered through 0.22 μm, BioreclamationIVT) at 37° C. […] Quenched samples were stored at 4° C. until the end of the experiment and centrifuged at 4,000 rpm for 10 minutes. The supernatant were diluted 1:1 with deionized water and analyzed using LC-MS. Percentage remaining at each time point was calculated based on the peak area ratio (analyte over internal standard) relative to the initial level at time zero. Half-lives were calculated by fitting to a first-order exponential decay equation using GraphPad.

Row | Structure (SMILES) | half-life at 20 μM (in vitro [1]) | IC50 (IL-23R) | half-life at 20 μM (in vitro [2]) | half-life (in vitro [3]) | half-life at 20 μM (in vitro [4])
1 | CC(=O)N[C@H]1CCSC[C@@H](C(=O)N[C@@H](Cc2ccc(OCCN)cc2)C(=O)N[C@@H](Cc2ccc3ccccc3c2)C(=O)NC2(C(=O)N[C@@H](CCC(=O)O)C(=O)N[C@@H](CC(N)=O)C(=O)NCCC(N)=O)CCOCC2)NC(=O)[C@H](CCC(N)=O)NC(=O)[C@H](Cc2c[nH]c3c(C)cccc23)NC(=O)[C@H]([C@@H](C)O)NC(=O)[C@H](CCC(N)=O)NC1=O [compound 204] | 1 h | 1 to 10 nM | 5 h | 19 h | 
2 | CC(=O)NCCCC[C@H](NC(=O)[C@](C)(CCCCN)NC(=O)[C@H](Cc1ccc2ccccc2c1)NC(=O)[C@H](Cc1ccc(OCCN)cc1)NC(=O)[C@H]1NC(=O)[C@H](CCCNC(N)=O)NC(=O)[C@H](Cc2c[nH]c3c(C)cccc23)NC(=O)[C@H]([C@@H](C)O)NC(=O)[C@H](CC(N)=O)NC(=O)[C@@H](NC(C)=O)C(C)(C)SSC1(C)C)C(=O)N[C@@H](CC(N)=O)C(=O)N[C@H](C(N)=O)[C@@H](C)O [compound 262] (Ac-[Pen]NT[Trp(7-Me)][Cit][Pen][AEF][2Nal][αMeK]K(Ac)NT-NH2; disulfide 1-6) | 15 h | 1 to 10 nM | 3 h |  | > 24 h
3 | CC(=O)NCCCC[C@H](NC(=O)[C@](C)(CCCCN)NC(=O)[C@H](Cc1ccc2ccccc2c1)NC(=O)[C@H](Cc1ccc(OCCN)cc1)NC(=O)[C@H]1NC(=O)[C@H](CCCNC(N)=O)NC(=O)[C@H](Cc2c[nH]c3c(C)cccc23)NC(=O)[C@H]([C@@H](C)O)NC(=O)[C@H](CC(N)=O)NC(=O)[C@@H](NC(C)=O)C(C)(C)SSC1(C)C)C(=O)N[C@@H](CC(N)=O)C(=O)N[C@@H](Cc1ccc(O)cc1)C(N)=O [compound 266] (Ac-[Pen]NT[Trp(7-Me)][Cit][Pen][AEF][2Nal][αMeK]K(Ac)NY-NH2; disulfide 1-6) | 16 h | 1 to 10 nM | 7 h |  | > 24 h
4 | CC(=O)NCCCC[C@H](NC(=O)[C@](C)(CCCCN)NC(=O)[C@H](Cc1ccc2ccccc2c1)NC(=O)[C@H](Cc1ccc(OCCN)cc1)NC(=O)[C@H]1NC(=O)[C@H](CCC(N)=O)NC(=O)[C@H](Cc2c[nH]c3c(C)cccc23)NC(=O)[C@H]([C@@H](C)O)NC(=O)[C@H](CC(N)=O)NC(=O)[C@@H](NC(C)=O)C(C)(C)SSC1(C)C)C(=O)N[C@@H](CC(C)C)C(=O)NCCC(N)=O [compound 269] | > 24 h | 1 to 10 nM | > 24 h |  | > 24 h
5 | CC(=O)NCCCC[C@@H]1NC(=O)[C@H](Cc2c[nH]c3c(C)cccc23)NC(=O)[C@H]([C@@H](C)O)NC(=O)[C@H](CC(N)=O)NC(=O)[C@@H](NC(C)=O)C(C)(C)SSC(C)(C)[C@@H](C(=O)N[C@@H](Cc2ccc(OCCN)cc2)C(=O)N[C@@H](Cc2ccc3ccccc3c2)C(=O)N[C@@](C)(CCCCN)C(=O)N[C@@H](CCCCNC(C)=O)C(=O)NCCC(=O)NCCC(N)=O)NC1=O [compound 270] | > 24 h | 1 to 10 nM | > 24 h |  | > 24 h
6 | CC(=O)NCCCC[C@H](NC(=O)[C@](C)(CCCCN)NC(=O)[C@H](Cc1cn(C)c2ccccc12)NC(=O)[C@H](Cc1ccc(OCCN)cc1)NC(=O)[C@H]1NC(=O)[C@H](CCC(N)=O)NC(=O)[C@H](Cc2c[nH]c3c(C)cccc23)NC(=O)[C@H]([C@@H](C)O)NC(=O)[C@H](CC(N)=O)NC(=O)[C@@H](NC(C)=O)C(C)(C)SSC1(C)C)C(=O)N[C@@H](CC(N)=O)C(=O)NCCC(N)=O [compound 283] (Ac-[Pen]NT[Trp(7-Me)]Q[Pen][AEF][Trp(1-Me)][αMeK]K(Ac)N[βAla]-NH2; disulfide 1-6) | > 24 h | 1 to 10 nM | 17 h |  | > 24 h
7 | CC(=O)NCCCC[C@@H]1NC(=O)[C@H](Cc2c[nH]c3c(C(C)C)cccc23)NC(=O)[C@H]([C@@H](C)O)NC(=O)[C@H](CC(N)=O)NC(=O)[C@@H](NC(C)=O)C(C)(C)SSC(C)(C)[C@@H](C(=O)N[C@@H](Cc2ccc(OCCN)cc2)C(=O)N[C@@H](Cc2ccc3ccccc3c2)C(=O)N[C@@](C)(CCCCN)C(=O)N[C@@H](CCCCNC(C)=O)C(=O)N[C@@H](CC(N)=O)C(=O)N[C@H](CC(C)C)C(N)=O)NC1=O [compound 286] (Ac-[Pen]NT[X4]K(Ac)[Pen][AEF][2Nal][αMeK]K(Ac)N[dL]-NH2; disulfide 1-6) | > 24 h | 1 to 10 nM | > 24 h |  | > 24 h
8 | CC(=O)NCCCC[C@H](NC(=O)[C@](C)(CCCCN)NC(=O)[C@H](Cc1ccc2ccccc2c1)NC(=O)[C@H](Cc1ccc(OCCN)cc1)NC(=O)[C@H]1NC(=O)[C@H](CCCCNC(=O)CC(C)C)NC(=O)[C@H](Cc2c[nH]c3c(C)cccc23)NC(=O)[C@H]([C@@H](C)O)NC(=O)[C@H](CC(N)=O)NC(=O)[C@@H](NC(C)=O)C(C)(C)SSC1(C)C)C(=O)N[C@@H](CC(N)=O)C(=O)N[C@H](CC(C)C)C(N)=O [compound 315] |  | 1 to 10 nM |  | 9 h | 
9 | CC(=O)NCCCC[C@H](NC(=O)[C@](C)(CCCCN)NC(=O)[C@H](Cc1ccc2ccccc2c1)NC(=O)[C@H](Cc1ccc(OCCN)cc1)NC(=O)[C@H]1NC(=O)[C@H](CCCCNC(=O)C2CCCCC2)NC(=O)[C@H](Cc2c[nH]c3c(C)cccc23)NC(=O)[C@H]([C@@H](C)O)NC(=O)[C@H](CC(N)=O)NC(=O)[C@@H](NC(C)=O)C(C)(C)SSC1(C)C)C(=O)N[C@@H](CC(N)=O)C(=O)N[C@H](CC(C)C)C(N)=O [compound 316] |  | 1 to 10 nM |  | 7 h | 
10 | CC(=O)NCCCC[C@H](NC(=O)[C@](C)(CCCCN)NC(=O)[C@H](Cc1ccc2ccccc2c1)NC(=O)[C@H](Cc1ccc(OCCN)cc1)NC(=O)[C@H]1NC(=O)[C@H](CCCCNC(=O)CN)NC(=O)[C@H](Cc2c[nH]c3c(C)cccc23)NC(=O)[C@H]([C@@H](C)O)NC(=O)[C@H](CC(N)=O)NC(=O)[C@@H](NC(C)=O)C(C)(C)SSC1(C)C)C(=O)N[C@@H](CC(N)=O)C(=O)N[C@H](CC(C)C)C(N)=O [compound 320] |  | < 1 nM |  | 12 h | 
11 | CC(=O)NCCCC[C@H](NC(=O)[C@](C)(CCCCN)NC(=O)[C@H](Cc1ccc2ccccc2c1)NC(=O)[C@H](Cc1ccc(OCCN)cc1)NC(=O)[C@H]1NC(=O)[C@H](CCCCNC(=O)CCN)NC(=O)[C@H](Cc2c[nH]c3c(C)cccc23)NC(=O)[C@H]([C@@H](C)O)NC(=O)[C@H](CC(N)=O)NC(=O)[C@@H](NC(C)=O)C(C)(C)SSC1(C)C)C(=O)N[C@@H](CC(N)=O)C(=O)N[C@H](CC(C)C)C(N)=O [compound 321] |  | 1 to 10 nM |  | 3 h | 
12 | CC(=O)NCCCC[C@@H]1NC(=O)[C@H](Cc2c[nH]c3c(C)cccc23)NC(=O)[C@H]([C@@H](C)O)NC(=O)[C@H](CCC(N)=O)NC(=O)[C@@H](NC(=O)[C@@H](CCCNC(=N)N)NC(C)=O)CCSC[C@@H](C(=O)N[C@@H](Cc2ccc(OCCN)cc2)C(=O)N[C@@H](Cc2ccc3ccccc3c2)C(=O)N[C@@](C)(CCCCN)C(=O)N[C@@H](CCCCNC(C)=O)C(=O)N[C@@H](CC(N)=O)C(=O)N[C@H](CCCCN)C(N)=O)NC1=O [compound 324] (Ac-[dR][Abu(4-yl)]QT[Trp(7-Me)]K(Ac)C[AEF][2Nal][αMeK]K(Ac)N[dK]-NH2; thioether 2-7) |  | 10 to 100 nM |  | 1 h | 
